Data as given in patent US20260285872A1, “COMPOUNDS AND METHODS FOR DEGRADING GSPT1” (priority 2023, published 2026).
Like-named read-outs stand apart in the source and are kept apart here.

Tests used:
Assay type in all cases: cell-based
GSPT1 [1] = molecular target: T1, GSPT1 (Homo sapiens, UniProt P15170+Q96SW2); experiment: GSPT1 degradation, Western Blot, HCC827 cells, 1 μM, 16 hours; details: % reduction of GSPT1 compared to DMSO, normalized to GAPDH, read-out: GSPT1 degradation classification
Description: (§1) HCC827 cells were obtained from Korean Cell Line Bank (KCLB) and grown in RPMI supplemented with 10% FBS. The cells were maintained at 37° C. under 5% CO2.
Compounds of the present disclosure was added to cells (final DMSO concentration of 0.1%) and incubated for 16 hours. GSPT1 levels were determined in HCC827 cells using Western Blot analysis. […] Protein levels were normalized to GAPDH levels.
The efficacy of GSPT1 degradation of a part of compounds of the present disclosure was determined by treating HCC827 cells at 1 μM (final DMSO concentration of 0.1%) for 16 hours. GSPT1 levels were determined using Western Blot and normalized to GAPDH levels.

HCC827 cells = experiment: NSCLC cell viability, CellTiter-Glo, HCC827 cells; details: Homo sapiens, read-out: Cell viability classification
Description: as §1
(§2) The efficacy of the present disclosure to reduce viability of Non-Small Cell Lung Cancer (NSCLC) cells was assessed using CellTiter-Glo Cell Viability Assay (Promega) according to the manufacturer's protocol. […] The luminescence was normalized to that of DMSO-treated samples. IC50 values were obtained using three-parameter non-linear regressions using Prism (GraphPad).
The efficacy of additional compounds of the present disclosure in reducing HCC827 cell viability was determined by treating HCC827 cells at various concentrations (final DMSO concentration of 0.1%). Cell viability was measured using the CellTiter-Glo reagent after 72 hours of treatment.

A549 cells = experiment: NSCLC cell viability, CellTiter-Glo, A549 cells; details: Homo sapiens, 72 hours of treatment, read-out: Cell viability classification
Description: A549 cells were obtained from Korean Cell Line Bank (KCLB) and grown in RPMI supplemented with 10% FBS. The cells were maintained at 37° C. under 5% CO2.
as §2
The efficacy of additional compounds of the present disclosure in reducing A549 cell viability was determined by treating A549 cells at various concentrations (final DMSO concentration of 0.1%). Cell viability was measured using the CellTiter-Glo reagent after 72 hours of treatment.

MV-4-11 cells = experiment: AML cell viability, CellTiter-Glo, MV-4-11 cells; details: Homo sapiens, MV4-11; TABLE 2; MV-4-11 cells assumed, CellTiter-Glo, 44 hours; read-out: Cell viability classification
Description: MV4-11 cells were obtained from ATCC and grown in IMDM supplemented with 10% FBS. The cells were maintained at 37° C. under 5% CO2. […] The luminescence was normalized to that of DMSO-treated samples. IC50 values were obtained using three-parameter non-linear regressions using Prism (GraphPad). […] Cell viability was measured using the CellTiter-Glo reagent after 44 hours of treatment. […] MV4-11 cells were obtained from ATCC and grown in IMDM supplemented with 10% FBS. The cells were maintained at 37° C. under 5% CO2. […] Cell viability was measured using the CellTiter-Glo reagent after 44 hours of treatment.

GSPT1 [2] = molecular target: T1, GSPT1; experiment: GSPT1 degradation, Western Blot, MV-4-11 cells, 0.1 μM, 4 hours; details: MV4-11, % reduction of GSPT1 compared to DMSO, normalized to GAPDH, read-out: GSPT1 degradation classification
Description: Compounds of the present disclosure was added to cells (final DMSO concentration of 0.1%) and incubated for 4 hours. GSPT1 levels were determined in MV-4-11 cells using Western Blot analysis. […] Protein levels were normalized to GAPDH levels.
The efficacy of GSPT1 degradation of a part of compounds of the present disclosure was determined by treating MV-4-11 cells at 0.1 μM (final DMSO concentration of 0.1%) for 4 hours. GSPT1 levels were determined using Western Blot and normalized to GAPDH levels.

GSPT1 [3] = molecular target: T1, GSPT1; experiment: GSPT1 degradation, Western Blot, A549 cells, 1 μM, 16 hours; details: % reduction of GSPT1 compared to DMSO, normalized to GAPDH, read-out: GSPT1 degradation classification
Description: Compounds of the present disclosure was added to cells (final DMSO concentration of 0.1%) and incubated for 16 hours. GSPT1 levels were determined in A549 cells using Western Blot analysis. […] Protein levels were normalized to GAPDH levels.
The efficacy of GSPT1 degradation of a part of compounds of the present disclosure was determined by treating A549 cells at 1 μM (final DMSO concentration of 0.1%) for 16 hours. GSPT1 levels were determined using Western Blot and normalized to GAPDH levels.

[4] = HCC827 cells, CellTiter-Glo, 72 hours of treatment

T1 sequence (P15170 whole entry): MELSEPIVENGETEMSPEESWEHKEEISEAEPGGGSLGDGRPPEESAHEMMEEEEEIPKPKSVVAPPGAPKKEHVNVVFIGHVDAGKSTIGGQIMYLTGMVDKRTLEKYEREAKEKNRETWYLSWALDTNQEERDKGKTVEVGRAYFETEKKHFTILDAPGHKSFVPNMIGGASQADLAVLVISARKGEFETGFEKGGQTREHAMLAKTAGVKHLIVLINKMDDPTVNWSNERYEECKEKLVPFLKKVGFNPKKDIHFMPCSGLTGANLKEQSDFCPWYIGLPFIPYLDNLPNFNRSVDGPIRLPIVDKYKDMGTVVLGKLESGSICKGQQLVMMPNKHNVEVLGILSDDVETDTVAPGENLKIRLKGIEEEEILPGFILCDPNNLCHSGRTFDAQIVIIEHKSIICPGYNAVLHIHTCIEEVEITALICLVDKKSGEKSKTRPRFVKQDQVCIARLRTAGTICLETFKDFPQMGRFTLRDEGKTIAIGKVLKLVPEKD
T1 sequence (Q96SW2 whole entry): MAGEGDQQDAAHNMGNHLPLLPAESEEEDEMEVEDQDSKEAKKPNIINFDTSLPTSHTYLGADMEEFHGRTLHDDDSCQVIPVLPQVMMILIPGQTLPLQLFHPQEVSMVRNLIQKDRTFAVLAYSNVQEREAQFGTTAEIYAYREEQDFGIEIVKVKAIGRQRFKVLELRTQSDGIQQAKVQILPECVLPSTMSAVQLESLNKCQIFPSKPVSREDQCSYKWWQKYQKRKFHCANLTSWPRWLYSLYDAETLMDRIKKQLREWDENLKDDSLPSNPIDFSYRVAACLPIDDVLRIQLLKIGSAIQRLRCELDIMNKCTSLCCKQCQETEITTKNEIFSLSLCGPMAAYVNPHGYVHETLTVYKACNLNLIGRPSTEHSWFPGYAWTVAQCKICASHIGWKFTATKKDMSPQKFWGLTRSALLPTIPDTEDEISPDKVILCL
T1 sequence (Q16531 whole entry partner): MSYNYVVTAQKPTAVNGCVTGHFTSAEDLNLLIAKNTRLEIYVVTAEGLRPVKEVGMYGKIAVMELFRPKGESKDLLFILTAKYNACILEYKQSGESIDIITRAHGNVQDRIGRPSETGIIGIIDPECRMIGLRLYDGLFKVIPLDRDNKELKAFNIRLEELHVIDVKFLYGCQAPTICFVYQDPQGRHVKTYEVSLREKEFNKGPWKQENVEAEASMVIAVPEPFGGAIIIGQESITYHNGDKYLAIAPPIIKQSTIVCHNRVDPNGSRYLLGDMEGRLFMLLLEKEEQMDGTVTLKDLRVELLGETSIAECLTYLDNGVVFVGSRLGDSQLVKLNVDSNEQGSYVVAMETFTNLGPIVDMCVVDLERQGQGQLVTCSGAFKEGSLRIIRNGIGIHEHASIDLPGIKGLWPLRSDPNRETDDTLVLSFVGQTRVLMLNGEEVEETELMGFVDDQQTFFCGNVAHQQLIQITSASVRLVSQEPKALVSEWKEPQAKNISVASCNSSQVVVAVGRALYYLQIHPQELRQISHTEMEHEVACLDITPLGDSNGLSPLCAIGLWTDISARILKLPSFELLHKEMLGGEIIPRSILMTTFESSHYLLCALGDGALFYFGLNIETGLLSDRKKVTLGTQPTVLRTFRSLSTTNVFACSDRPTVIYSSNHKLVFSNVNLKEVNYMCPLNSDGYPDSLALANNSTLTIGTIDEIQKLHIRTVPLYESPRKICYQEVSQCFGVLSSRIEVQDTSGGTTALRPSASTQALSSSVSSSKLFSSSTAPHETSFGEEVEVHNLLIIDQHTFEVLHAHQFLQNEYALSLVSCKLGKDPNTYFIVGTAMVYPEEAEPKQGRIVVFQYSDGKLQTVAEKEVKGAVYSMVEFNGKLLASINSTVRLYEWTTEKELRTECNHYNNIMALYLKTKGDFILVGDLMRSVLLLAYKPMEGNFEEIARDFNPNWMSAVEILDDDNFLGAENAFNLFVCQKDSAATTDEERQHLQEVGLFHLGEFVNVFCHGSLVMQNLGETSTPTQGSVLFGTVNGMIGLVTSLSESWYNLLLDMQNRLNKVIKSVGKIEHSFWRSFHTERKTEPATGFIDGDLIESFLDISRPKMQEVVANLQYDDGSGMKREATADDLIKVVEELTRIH

Row | Compound | IC50 (A549 cells) [nM] | IC50 (MV-4-11 cells) [nM] | inhibition at 0.1 µM (GSPT1 [2]) [%] | other results
1 | O=C1CCC(N2Cc3cc(C(=O)N4Cc5cccc(F)c5C4)ccc3C2=O)C(=O)N1 (stereo not drawn) [Example 87, 3-(5-(4-fluoroisoindoline-2-carbonyl)-1-oxoisoindolin-2-yl)piperidine-2,6-dione] |  |  |  | inhibition at 1 µM (GSPT1 [1]): > 75%; IC50 (HCC827 cells; HCC827, 72 h): < 1000 nM
2 | O=C1CCC(N2Cc3cc(C(=O)Nc4cccc5cccnc45)ccc3C2=O)C(=O)N1 (stereo not drawn) [Example 95, 2-(2,6-dioxopiperidin-3-yl)-1-oxo-N-(quinolin-8-yl)isoindoline-5-carboxamide] | > 1000 |  |  | 
3 | O=C1CCC(N2Cc3cc(C(=O)Nc4ccccc4)ccc3C2=O)C(=O)N1 (stereo not drawn) [Example 93, 2-(2,6-dioxopiperidin-3-yl)-1-oxo-N-phenylisoindoline-5-carboxamide] | 1000 to 30000 |  |  | 
4 | O=C1CCC(N2Cc3cc(C(=O)Nc4csc5cc(F)ccc45)ccc3C2=O)C(=O)N1 (stereo not drawn) [Example 69, 2-(2,6-dioxopiperidin-3-yl)-N-(6-fluorobenzo[b]thiophen-3-yl)-1-oxoisoindoline-5-carboxamide] |  | < 100 | 50 to 75 | 
5 | O=C1CCC(N2Cc3cc(C(=O)Nc4ccccc4F)ccc3C2=O)C(=O)N1 (stereo not drawn) [Example 94, 2-(2,6-dioxopiperidin-3-yl)-N-(2-fluorophenyl)-1-oxoisoindoline-5-carboxamide] | > 1000 |  |  | 
6 | O=C1CCC(N2Cc3cc(C(=O)N4CCc5c4ccc(Cl)c5F)ccc3C2=O)C(=O)N1 (stereo not drawn) [Example 66, 3-(5-(5-chloro-4-fluoroindoline-1-carbonyl)-1-oxoisoindolin-2-yl)piperidine-2,6-dione] |  | < 100 | < 50 | 
7 | O=C1CCC(N2Cc3cc(C(=O)NC4CCCCC4)ccc3C2=O)C(=O)N1 (stereo not drawn) [Example 96, N-cyclohexyl-2-(2,6-dioxopiperidin-3-yl)-1-oxoisoindoline-5-carboxamide] | 1000 to 30000 |  |  | inhibition at 1 µM (GSPT1 [3]): 50 to 75%
8 | O=C1CCC(N2Cc3cc(C(=O)Nc4nsc5ccccc45)ccc3C2=O)C(=O)N1 (stereo not drawn) [Example 89, N-(benzo[d]isothiazol-3-yl)-2-(2,6-dioxopiperidin-3-yl)-1-oxoisoindoline-5-carboxamide] |  |  |  | IC50 (HCC827 cells; [4]): > 1000 nM
9 | O=C1CCC(N2Cc3cc(C(=O)Nc4cscn4)ccc3C2=O)C(=O)N1 (stereo not drawn) [Example 90, 2-(2,6-dioxopiperidin-3-yl)-1-oxo-N-(thiazol-4-yl)isoindoline-5-carboxamide] |  |  |  | IC50 (HCC827 cells; [4]): > 1000 nM
10 | O=C1CCC(N2Cc3cc(C(=O)N4Cc5ccc(F)cc5C4)ccc3C2=O)C(=O)N1 (stereo not drawn) [Example 88, 3-(5-(5-fluoroisoindoline-2-carbonyl)-1-oxoisoindolin-2-yl)piperidine-2,6-dione] |  |  |  | inhibition at 1 µM (GSPT1 [1]): > 75%; IC50 (HCC827 cells; HCC827, 72 h): < 1000 nM
11 | O=C1CCC(N2Cc3cc(C(=O)Nc4csc5ccccc45)c(F)cc3C2=O)C(=O)N1 (stereo not drawn) [Example 91, N-(benzo[b]thiophen-3-yl)-2-(2,6-dioxopiperidin-3-yl)-6-fluoro-1-oxoisoindoline-5-carboxamide] | < 1000 |  |  | inhibition at 1 µM (GSPT1 [3]): > 75%
12 | O=C1CCC(N2Cc3cc(C(=O)N4CCc5c(F)cc(F)cc54)ccc3C2=O)C(=O)N1 (stereo not drawn) [Example 92, 3-(5-(4,6-difluoroindoline-1-carbonyl)-1-oxoisoindolin-2-yl)piperidine-2,6-dione] | < 1000 |  |  | 
13 | O=C1CCC(N2Cc3cc(C(=O)Nc4csc5c(F)cccc45)ccc3C2=O)C(=O)N1 (stereo not drawn) [Example 70, 2-(2,6-dioxopiperidin-3-yl)-N-(7-fluorobenzo[b]thiophen-3-yl)-1-oxoisoindoline-5-carboxamide] |  | < 100 | < 50 | 
14 | O=C1CCC(N2Cc3cc(C(=O)Nc4csc5ccc(F)cc45)ccc3C2=O)C(=O)N1 (stereo not drawn) [Example 68, 2-(2,6-dioxopiperidin-3-yl)-N-(5-fluorobenzo[b]thiophen-3-yl)-1-oxoisoindoline-5-carboxamide] |  | < 100 | 50 to 75 | 
15 | O=C1CCC(N2Cc3cc(C(=O)N4CCc5c(Cl)ccc(F)c54)ccc3C2=O)C(=O)N1 (stereo not drawn) [Example 86, 3-(5-(4-chloro-7-fluoroindoline-1-carbonyl)-1-oxoisoindolin-2-yl)piperidine-2,6-dione] |  |  |  | IC50 (HCC827 cells; HCC827, 72 h): > 1000 nM
16 | O=C1CCC(N2Cc3cc(C(=O)N4CCc5c4ccc(F)c5F)ccc3C2=O)C(=O)N1 (stereo not drawn) [Example 65, 3-(5-(4,5-difluoroindoline-1-carbonyl)-1-oxoisoindolin-2-yl)piperidine-2,6-dione] |  | < 100 | < 50 | 
17 | O=C1CCC(N2Cc3cc(C(=O)NC45CC(F)(C4)C5)ccc3C2=O)C(=O)N1 (stereo not drawn) [Example 71, 2-(2,6-dioxopiperidin-3-yl)-N-(3-fluorobicyclo[1.1.1]pentan-1-yl)-1-oxoisoindoline-5-carboxamide] |  | > 1000 | < 50 | 
